# Measurements taken from patent US12435128B2, “Method for predicting therapeutic effect of LSD1 inhibitor based on expression of INSM1” (TAIHO PHARMACEUTICAL CO., LTD., priority 2017, dated 2025).
# Tests used:
# [1] = test system: NCI-H146 cells (human small-cell lung cancer cell lines); test: Antitumor effect test using NCI-H146 cells subcutaneously implanted into mice (T/C %); type: in vivo; conditions: NCI-H146 in BALB/cAJcl-nu/nu mice
# Experimental: To 5 mice in each group, a vehicle (0.5% hydroxymethylpropylcellulose containing 0.1 N HCL) or each Example compound was orally administered. […] The major axis and the minor axis of each tumor were measured twice a week with an electric caliper to calculate the tumor volume (TV). According to the tumor volumes thus obtained, a relative tumor volume (RTV) and a relative tumor volume change (T/C (%)) were calculated. The TV, RTV, and T/C (%) were calculated using the following equations. Tumor volume TV(mm^3)=(major axis, mm)×(minor axis, mm)×(minor axis, mm)/2 Relative tumor volume RTV=TV/(TV on the grouping day) T/C(%)=(average RTV of administration group)/(average RTV of vehicle administration group)×100.
# The final measurement day was the day following the final administration day.
# [2] = test system: HEL cells (human acute myelocytic leukemia cell lines); test: Cell-growth inhibition test: HEL cells; type: cell-based; conditions: read-out: IC50 (nM), Cell-Growth Inhibition Test: HEL Cells
# DMS79 cells = test: Cell-growth inhibitory effects of LSD1 inhibitor on non-sensitive strain DMS79; type: cell-based, human; conditions: 10 days
# Experimental: (§1) As a medium, 10% FBS-containing RPMI1640 was used. Cell lines were seeded in a 96-well flat-bottom microplate in an amount of 120 μL, and a well containing 160 μL of medium alone was also prepared for background measurement. […] After culture, the microplate was allowed to stand at room temperature for 30 minutes. To 160 μL of the cell culture solution or the medium containing no cells, 140 μL of CellTiter-Glo 2.0 Assay (Promega) was added. After the microplate was allowed to stand at room temperature for 10 minutes, the luminescence intensity of viable cells in each well was measured using a microplate reader (PerkinElmer, EnSpire). The IC35 of each drug was obtained in the same manner as above.
# [3] = test system: NCI-H146 cells (human small-cell lung cancer cell lines); test: Cell-growth inhibition test: NCI-H146 cells; type: cell-based; conditions: NCI-H146 cells; read-out: IC50 (nM), Cell-Growth Inhibition Test: NCI-H146 Cells
# Experimental: Under the following conditions, an in vitro cell-growth inhibition test was performed with respect to HEL cells (human acute myelocytic leukemia cell lines), NCI-H1417 cells (human small-cell lung cancer cell lines), and NCI-H146 cells (human small-cell lung cancer cell lines).
# The cells with the Example compound or with dimethylsulfoxide alone were cultured at 37° C. in a 5% carbon-dioxide-containing incubator for 5 days (HEL cells) or 10 days (NCI-H1417 cells and NCI-H146 cells). After culture, the plate was allowed to stand at room temperature for 30 minutes, and 100 μL of the supernatant was removed from each well to leave 100 μL of the cell culture solution. To each well containing the remaining 100 μL of the cell culture solution, the same amount of CellTiter-Glo 2.0 Assay (Promega, Cat #: G9242) was added. The microplate was shaken with a plate mixer for 1 minute and then allowed to stand in a dark place for 10 minutes. Thereafter, the luminescence intensity of viable cells in each well was measured using a microplate reader (PerkinElmer, EnSpire). […] Cell growth rate(%)=T/C×100 • T: The luminescence intensity in a well to which the test compound was added (count per second) • C: The luminescence intensity in a well to which dimethylsulfoxide alone was added (count per second)
# [4] = test system: NCI-H1417 cells (human small-cell lung cancer cell lines); test: Cell-growth inhibition test: NCI-H1417 cells; type: cell-based; conditions: read-out: IC50 (nM), Cell-Growth Inhibition Test: NCI-H1417 Cells
# NCI-H1417 cells = test: Cell-growth inhibitory effects of LSD1 inhibitor on sensitive strain NCI-H1417; type: cell-based, human; conditions: 10 days
# Experimental: as §1
SMILES,"T/C (%) ([1]; 40 mg/kg orally once a day, 28 consecutive days)",IC50 [2] [nM],growth inhibitory effects (DMS79 cells),IC50 [3] [nM],IC50 [4] [nM],growth inhibitory effects (NCI-H1417 cells),"T/C (%) ([1]; 25 mg/kg orally once a day, 21 consecutive days)"
"CC(C)(O)Cn1nnc2cc(-c3ccc(C(=O)N4[C@@H]5CC[C@H]4C[C@@H](N)C5)cc3-c3ccc(C#N)c(F)c3)c(F)c(F)c21 [Example 161, 5′-((3-endo)-3-amino-8-azabicyclo[3.2.1]octane-8-carbonyl)-2′-(6,7-difluoro-1-(2-hydroxy-2-methylpropyl)-1H-benzo[d][1,2,3]triazol-5-yl)-3-fluoro-[1,1′-biphenyl]-4-carbonitrile]",14,5.68,,,,,
"CCC(O)(CC)Cn1nnc2cc(-c3ccc(C(=O)N4[C@@H]5CC[C@H]4[C@@H](N)C5)cc3-c3ccc(C#N)c(F)c3)c(F)c(F)c21 (single isomer, unassigned) [Example 214]",,0.44,did not show growth inhibitory effects,2.58,0.47,showed growth inhibitory effects,
"CC(C)(O)Cn1nnc2cc(-c3ccc(CN4[C@@H]5CC[C@H]4[C@@H](N)C5)cc3-c3ccc(C#N)c(F)c3)c(F)c(F)c21.Cl.Cl (single isomer, unassigned) [Example 285]",,,did not show growth inhibitory effects,,,showed growth inhibitory effects,
"CC(C)(O)Cc1ccc(-c2ccc(C(=O)N3[C@@H]4CC[C@H]3C[C@@H](N)C4)cc2-c2ccc(C#N)c(F)c2)c(F)c1 [Example 41, 4-[5-[(3-endo)-3-amino-8-azabicyclo[3.2.1]octane-8-carbonyl]-2-[2-fluoro-4-(2-hydroxy-2-methyl-propyl)phenyl]phenyl]-2-fluoro-benzonitrile]",,,did not show growth inhibitory effects,,,showed growth inhibitory effects,19
